# Like-named read-outs stand apart in the source and are kept apart here.
# Assays:
# [1] = system: WSU-DLCL2 Cells (EZH2 mutation Y641F); test: Cell viability of lymphoma cell lines, WSU-DLCL2; assay type: cell-based, human; design: Effect on Cell Viability (% survival) WSU-DLCL2 Cells: concentration or dose not given beside the values; details: Table 5
# Protocol: (§1) Compound 50 was tested for its effect on the viability of three lymphoma cell lines in vitro using standard methods. The cell lines tested were: DoHH-2 (wildtype for EZH2, MEF2B and MLL2); WSU-DLCL2 (EZH2 mutation Y641F (wildtype for MEF2B and MLL2)) and DB (EZH2 mutation Y641N, the MEF2B mutation D83V and three mutations in MLL2 (two of which lead to a truncated protein after residue Q2736 and the third allele has a 1 base pair deletion at residue P480)).
# (§2) Compound 51 (NSC2540) was tested for its effect on the viability of four lymphoma cell lines in vitro using standard methods. The cell lines tested were DoHH-2, WSU-DLCL2, DB and SU-DHL-9 (EZH2 wildtype, MEF2B wildtype, MLL2 indel).
# [2] = system: DoHH2 Cells (wildtype for EZH2, MEF2B and MLL2); test: Cell viability of lymphoma cell lines, DoHH-2; assay type: cell-based; design: Effect on Cell Viability (% survival) DoHH2 Cells: concentration or dose not given beside the values; details: Table 5
# Protocol: as §1, §2
# [3] = system: SU-DHL-9 (MLL2 homozygous indel mutant) cell line; test: alamarBlue cell proliferation assay, SU-DHL-9 cell line; assay type: cell-based, human; details: for activity at 10 µM: Homo sapiens, read-out: % Cell Proliferation; for activity as worded in SAR analysis (selective toxicity against SU-DHL-9): in words, restates Tables 3 and 4
# Protocol: Cell line DOHH2 was obtained from DSMZ. Pfeiffer was obtained from ATCC. SU-DHL-9 was obtained from Martin Dyer (University of Leicester, UK).
# Compounds were initially solubilized in DMSO at a concentration of 10 mM. […] Ninety microliters of cells maintained at a concentration of 4×10^5 cells/mL were dispensed into wells of a MICROTEST™ 96-well Assay Plate, Optilux™ (BD). Ten microliters of the 100 μM compound solution were then added to the cells resulting in a final compound concentration of 10 μM. Each compound was tested in triplicate. […] Compounds were incubated with the cells in a 37° C. incubator with 5% CO2, humidified atmosphere for 48 hours before being subjected to the alamarBlue® cell proliferation assay (Life Technologies). Raw fluorescent units were corrected for background noise and normalized to the carrier-treated control.
# [4] = system: DoHH-2, OCI-LY3, WSU-DLCL2 (all wild-type for MLL2); test: alamarBlue cell proliferation assay, MLL2 wild-type cell lines; assay type: cell-based; details: in words
# Protocol: Diffuse large B-cell lymphoma cell lines were maintained in RPMI medium 1640 (Life Technologies) supplemented with 10% (v/v) fetal bovine serum (Life Technologies) and 1% penicillin/streptomycin (Life Technologies) in a 37° C. incubator with 5% CO2, humidified atmosphere. Cell line DOHH2 was obtained from DSMZ. Pfeiffer was obtained from ATCC. SU-DHL-9 was obtained from Martin Dyer (University of Leicester, UK).
# Compounds were initially solubilized in DMSO at a concentration of 10 mM. This compound solution was further diluted 1:100 in RPMI medium 1640 to a final concentration of 100 μM. Ninety microliters of cells maintained at a concentration of 4×10^5 cells/mL were dispensed into wells of a MICROTEST™ 96-well Assay Plate, Optilux™ (BD). Ten microliters of the 100 μM compound solution were then added to the cells resulting in a final compound concentration of 10 μM. Each compound was tested in triplicate. Ten microliters of a 1:100 DMSO to RPMI medium 1640 solution were also added to 90 μL of cells as a carrier control. Furthermore, each plate included wells containing only RPMI medium 1640 to serve as a background noise control as well as cells that were completely untreated. Compounds were incubated with the cells in a 37° C. incubator with 5% CO2, humidified atmosphere for 48 hours before being subjected to the alamarBlue® cell proliferation assay (Life Technologies). Raw fluorescent units were corrected for background noise and normalized to the carrier-treated control.
# The activity of Compound 3 in vitro was investigated further using the cell lines DoHH-2, OCI-LY3, WSU-DLCL2 (all wild-type for MLL2) and SU-DHL9. In addition, the dose response for Compound 2 was investigated in cell lines mutant for MLL2 or both MLL2 and EZH2. The dose response for Compound 3 was investigated in a MLL2 mutant cell line. Methods were as described for Example 3. Cell-line WSU-DLCL2 was obtained from DSMZ and OCI-Ly lines 3 was obtained from Louis Staudt (US National Institutes of Health).
# [5] = Table 3, scaffold A, 10 μM, 48 hours, normalized to carrier-treated control, SU-DHL-9
# [6] = Table 4, scaffold B, 10 μM, 48 hours, normalized to carrier-treated control, SU-DHL-9
SMILES,Effect on Cell Viability (% survival) WSU-DLCL2 Cells [1] [%],Effect on Cell Viability (% survival) DoHH2 Cells [2] [%],further results
Cc1c(Cl)ccc2c(C(=O)NN)cc(-c3ccc(Cl)cc3)nc12 [Compound 48],40,90,
"C=C(CN1CCOCC1)C(=O)c1ccccc1 [Compound 11, 2-(morpholin-4-ylmethyl)-1-phenylprop-2-en-1-one]",,,"activity at 10 µM [3, 5]: 26%"
C=C(CN(C)C)C(=O)c1ccccc1 [Compound 19],,,"activity at 10 µM [3, 5]: 77%; activity as worded in SAR analysis (selective toxicity against SU-DHL-9) [3]: inactive or minimally active"
C=CCCC(=C)c1ccccc1 [Compound 21],,,"activity at 10 µM [3, 5]: 105%"
CC(=O)Nc1cccc2c1C(=O)c1ccccc1C2=O [Compound 24],,,"activity at 10 µM [3, 6]: 107%; activity as worded in SAR analysis (selective toxicity against SU-DHL-9) [3]: inactive"
CCCN(CCC)CC(O)c1cc(-c2ccc(Cl)cc2)nc2c(C)c(Cl)ccc12 (stereo not drawn) [Compound 46],90,100,
OC(c1cc(-c2ccccc2)nc2c(Cl)cc(Cl)cc12)C1CCCCN1 (stereo not drawn) [Compound 42],10,30,
C=C(CN(C)C)C(=O)c1ccc(C)cc1C [Compound 15],,,"activity at 10 µM [3, 5]: 61%"
COc1ccccc1C(=O)C(=O)CN(C)C [Compound 17],,,"activity at 10 µM [3, 5]: 89%; activity as worded in SAR analysis (selective toxicity against SU-DHL-9) [3]: inactive or minimally active"
CC(=O)C(=O)c1ccccc1 [Compound 12],,,activity at 10 µM ([3]; 48 h): 105%
O=C(CBr)c1cc(-c2ccc(Cl)cc2)nc2cc(Cl)ccc12 [Compound 30],40,60,
CC(O)c1cc(-c2ccc(Cl)cc2)nc2ccccc12 (stereo not drawn) [Compound 29],80,100,
OC(CBr)c1cc(-c2ccc(Cl)cc2)nc2cc(Cl)ccc12 (stereo not drawn) [Compound 31],100,100,
OC(CBr)c1cc(-c2ccccc2)nc2ccccc12 (stereo not drawn) [Compound 25],60,100,
C=C(CN(C)C)C(=O)c1ccccc1C [Compound 16],,,"activity at 10 µM [3, 5]: 107%; activity as worded in SAR analysis (selective toxicity against SU-DHL-9) [3]: inactive or minimally active"
Cc1c(Cl)ccc2c(C(O)CN(C)C)cc(-c3ccc(Cl)cc3)nc12 (stereo not drawn) [Compound 47],100,100,
O=C(c1cc(-c2ccc(Cl)c(Cl)c2)nc2c(Cl)cc(Cl)cc12)C1NN1 [Compound 33],100,100,
O=C(CBr)c1cc(-c2ccc(Cl)cc2)nc2ccccc12 [Compound 27],40,90,
OC(c1cc(-c2ccccc2)nc2cc(Cl)ccc12)C1CCCCN1 (stereo not drawn) [Compound 43],10,40,
CC(=O)c1cc(-c2ccc(Cl)cc2)nc2ccccc12 [Compound 28],100,100,
CC(=O)NC(CC(=O)Nc1cccc2c1C(=O)c1ccccc1-2)C(C)=O (stereo not drawn) [Compound 23],,,"activity at 10 µM [3, 6]: 114%; activity as worded in SAR analysis (selective toxicity against SU-DHL-9) [3]: inactive"

SMILES,Effect on Cell Viability (% survival) WSU-DLCL2 Cells [1] [%],Effect on Cell Viability (% survival) DoHH2 Cells [2] [%],further results
OC(c1cc(-c2ccccc2)nc2c1ccc1ccccc12)C1CCCCN1 (stereo not drawn) [Compound 44],10,10,
"C=CS(=O)(=O)c1ccc2ccccc2c1 [Compound 6, 2-ethenylsulfonylnaphthalene]",,,"activity at 10 µM [3, 5]: 69%; activity as worded in SAR analysis (selective toxicity against SU-DHL-9) [3]: only moderate activity"
CCN(CC)CC(O)c1cc(-c2ccc(Cl)cc2)nc2cc(Cl)ccc12 (stereo not drawn) [Compound 45],80,100,
CC(O)c1cc(-c2ccccc2)nc2ccccc12 (stereo not drawn) [Compound 26],90,100,
"C=C(CNC(C)(C)C)C(=O)c1ccccc1 [Compound 8, 2-[(tert-butylamino)methyl]-1-phenylprop-2-en-1-one]",,,"activity at 10 µM [3, 5]: 92%"
C=C(CN(C)C)C(=O)c1ccc(OC)cc1 [Compound 20],,,"activity at 10 µM [3, 5]: 83%"
OC(CBr)c1cc(-c2ccccc2)nc2c(Cl)cc(Cl)cc12 (stereo not drawn) [Compound 34],90,100,
OC(c1cc(-c2ccc(Cl)cc2Cl)nc2cc(Cl)ccc12)C1CCCCN1 (stereo not drawn) [Compound 39],20,60,
O=C(CBr)c1cc(-c2ccc(Cl)cc2)nc2c(-c3ccccc3)cccc12 [Compound 35],17,20,
"O=C1c2ccccc2-c2c(NC(=O)C(Cl)Cl)cccc21 [Compound 9, 2,2-dichloro-N-(9-oxofluoren-4-yl)acetamide]",,,"activity at 10 µM [3, 6]: 117%"
OC(c1cc(-c2ccc(Cl)cc2)nc2cc(Cl)ccc12)N1CCCCC1 (stereo not drawn) [Compound 38],80,100,
O=C1c2ccccc2-c2cccc(NC(=O)C(Cl)Cl)c21 [Compound 22],,,"activity at 10 µM [3, 6]: 86%; activity as worded in SAR analysis (selective toxicity against SU-DHL-9) [3]: partially active"
O=C(Cl)c1cc(-c2ccc(Cl)cc2)nc2c(-c3ccccc3)cccc12 [Compound 37],80,100,
Cc1c(Cl)ccc2c(C(=O)CNCc3ccccc3)cc(-c3ccc(Cl)cc3)nc12 [Compound 49],50,70,
OC(c1cc(-c2cccc(Cl)c2)nc2ccccc12)C1CCCCN1 (stereo not drawn) [Compound 41],10,17,
C=CC(=O)c1ccccc1 [Compound 13],,,"activity at 10 µM [3, 5]: 137%"
OC(CBr)c1cc(-c2ccc(Cl)cc2)nc2c(-c3ccccc3)cccc12 (stereo not drawn) [Compound 36],90,100,
"C=C(CN(C)C)C(=O)c1cc(C)ccc1C [Compound 1, 2-dimethylaminomethyl-1-(2,5-dimethyl-phenyl)-propenone]",,,"activity at 10 µM [3, 5]: < 10%; activity against the MLL2 double LoF mutant cell line ([3]; SU-DHL-9, in words): active; activity as worded in SAR analysis (selective toxicity against SU-DHL-9) [3]: active; activity against wild-type cells [4]: inactive"
OC(c1cc(-c2ccc(Cl)cc2)nc2ccccc12)C1CCCCN1 (stereo not drawn) [Compound 40],50,100,
CC(=O)c1cc(-c2ccc(Cl)c(Cl)c2)nc2c(Cl)cc(Cl)cc12 [Compound 32],90,100,
C=C(CN(C)C)C(=O)c1ccc(C(=O)C(=C)CN(C)C)cc1 [Compound 14],,,"activity at 10 µM [3, 5]: 93%; activity as worded in SAR analysis (selective toxicity against SU-DHL-9) [3]: lacks activity"
